Test results as given in patent publication US20040180031A1, “Skin conditioner” (Kabushiki Kaisha Soken, priority 1999, published 2004).

How the values were obtained:
[1] = system: normal human skin fibroblasts; test: Collagen production recovery test on damaged fibroblasts (Test Example 1); format: cell-based; details: 3H-proline uptake into collagen; sample final concentration 3.3%; 24 hours at 37° C.; hypoxanthine/xanthine oxidase damage; FIG. 1
Procedure: A collagen production recovery test was conducted on damaged fibroblasts. Six to eight subcultures of normal human skin fibroblasts (Physicochemical Research Institute, Cell Development Bank NBIRGB) were used in the test. […] Measurement of collagen production ability of a confluent in the steady state was performed according to the method of Webster et al. based on the uptake of ^3H-proline into the produced collagen. […] Since proline is a main component of the amino acids that compose collagen, fibroblasts are cultured in a medium containing ^3H-proline, and the ^3H activity taken up into collagen in the cells is measured. Units are in d.p.m., and represent the number of […] of radioactivity released per minute.

[2] = system: persons with atopic skin; test: 2-hour moisture retention duration test on atopic skin (Test Example 9); format: in vivo, human
Procedure: A 2-hour moisture retention duration test was performed on atopic skin.

[3] = system: persons with atopic skin; test: Moisture retention ability test on atopic skin, ammonium samples (Test Example 18); format: in vivo, human; details: FIG. 54
Procedure: A moisture retention ability test was performed on atopic skin. Test Method: Same as Test Example 3 Measurement Method: Same as Text Example 3 Test Apparatus: Same as Test Example 3

[4] = system: volunteers with chapped skin; test: Moisture retention duration test on persons with chapped skin, ammonium samples (Test Example 17); format: in vivo, human
Procedure: A moisture retention duration test was conducted on persons with chapped skin.
Test Method: Same as Test Example 2
Measurement Method: Same as Text Example 2
Test Apparatus: Same as Test Example 2

| SMILES | collagen production ability of fibroblasts damaged by active oxygen [1] | moisture retention duration / continuation of moisture retention [2] | moisture retention ability [3] | moisture retention duration [4] |
| --- | --- | --- | --- | --- |
| N=C(N)NCCC[C@H](N)C(=O)O [L-arginine] | significantly improved | observed | – | – |
| N [ammonium ions] | – | – | can be observed | can be observed |
| NCCO [ethanolamine] | significantly improved | observed | – | – |
